# Calls of active or inactive are those of the source. The calls are words filed in the database; no cut-off is given here.
# Experiments:
# Cynomolgus monkey [1] = assay: Induction of miosis in sc dosed cynomolgus monkey; assay type: organism-based, Macaca fascicularis; conditions: in vivo
# Rattus norvegicus [2] = assay: Potentiation of haloperidol-induced catalepsy in Sprague-Dawley rats at 30 mg/kg, sc administered 15 mins after haloperidol injection measured after 45 mins; assay type: ADME, organism-based; parameters: dose 30 mg/kg, route subcutaneous; conditions: in vivo, 0.75 h
# Cynomolgus monkey [3] = assay: Induction of drowsiness in sc dosed cynomolgus monkey; assay type: organism-based, Macaca fascicularis; conditions: in vivo
# Cynomolgus monkey [4] = assay: Cardiotoxicity in telemetered cynomolgus monkey assessed as increase in heart rate at 1 to 3 mg/kg, sc measured after 1 to 4 hrs by telemetry method; assay type: toxicity, organism-based, Macaca fascicularis; parameters: route subcutaneous; conditions: in vivo
# Cynomolgus monkey [5] = assay: Cardiotoxicity in telemetered cynomolgus monkey assessed as prolongation of QRS duration at 1 to 3 mg/kg, sc measured after 1 to 4 hrs by telemetry method; assay type: toxicity, organism-based, Macaca fascicularis; parameters: route subcutaneous; conditions: in vivo
# [6] = molecular target: T1, Muscarinic acetylcholine receptor M4 (Homo sapiens) (UniProt P08173); assay: Agonist activity at M4 receptor (unknown origin) at 3 uM by calcium mobilization assay; assay type: functional
# T1 sequence (whole entry): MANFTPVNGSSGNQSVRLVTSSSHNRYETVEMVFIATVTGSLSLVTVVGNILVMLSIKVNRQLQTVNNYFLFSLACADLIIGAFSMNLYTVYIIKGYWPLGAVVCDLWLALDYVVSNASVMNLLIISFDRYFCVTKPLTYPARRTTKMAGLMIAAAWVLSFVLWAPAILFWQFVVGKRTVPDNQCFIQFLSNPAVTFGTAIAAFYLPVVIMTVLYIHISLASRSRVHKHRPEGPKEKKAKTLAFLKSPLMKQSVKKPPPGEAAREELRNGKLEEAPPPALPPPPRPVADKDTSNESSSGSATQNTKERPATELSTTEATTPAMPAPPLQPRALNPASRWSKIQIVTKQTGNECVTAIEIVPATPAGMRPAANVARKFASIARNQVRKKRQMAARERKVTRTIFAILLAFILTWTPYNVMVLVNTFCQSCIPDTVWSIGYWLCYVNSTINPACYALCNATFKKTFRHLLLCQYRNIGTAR
# Cynomolgus monkey [7] = assay: Induction of vomiting in sc dosed cynomolgus monkey; assay type: organism-based, Macaca fascicularis; conditions: in vivo
# Mus musculus [8] = assay: Induction of salivation in ddY mouse at 10 to 30 mg/kg, sc measured for 30 mins after drug administration; assay type: organism-based; parameters: dose 10-30 mg/kg, route subcutaneous; conditions: in vivo, 0.5 h
# Cynomolgus monkey [9] = assay: Cardiotoxicity in telemetered cynomolgus monkey assessed as prolongation of QTc interval at 1 to 3 mg/kg, sc measured after 1 to 4 hrs by telemetry method; assay type: toxicity, organism-based, Macaca fascicularis; parameters: route subcutaneous; conditions: in vivo
# [10] = molecular target: Muscarinic acetylcholine receptor M3 (Homo sapiens) (UniProt P20309); assay: Agonist activity at M3 receptor (unknown origin) at 3 uM by calcium mobilization assay; assay type: functional
# Chain of Muscarinic acetylcholine receptor M3 (Homo sapiens) (P20309 whole entry, looked up): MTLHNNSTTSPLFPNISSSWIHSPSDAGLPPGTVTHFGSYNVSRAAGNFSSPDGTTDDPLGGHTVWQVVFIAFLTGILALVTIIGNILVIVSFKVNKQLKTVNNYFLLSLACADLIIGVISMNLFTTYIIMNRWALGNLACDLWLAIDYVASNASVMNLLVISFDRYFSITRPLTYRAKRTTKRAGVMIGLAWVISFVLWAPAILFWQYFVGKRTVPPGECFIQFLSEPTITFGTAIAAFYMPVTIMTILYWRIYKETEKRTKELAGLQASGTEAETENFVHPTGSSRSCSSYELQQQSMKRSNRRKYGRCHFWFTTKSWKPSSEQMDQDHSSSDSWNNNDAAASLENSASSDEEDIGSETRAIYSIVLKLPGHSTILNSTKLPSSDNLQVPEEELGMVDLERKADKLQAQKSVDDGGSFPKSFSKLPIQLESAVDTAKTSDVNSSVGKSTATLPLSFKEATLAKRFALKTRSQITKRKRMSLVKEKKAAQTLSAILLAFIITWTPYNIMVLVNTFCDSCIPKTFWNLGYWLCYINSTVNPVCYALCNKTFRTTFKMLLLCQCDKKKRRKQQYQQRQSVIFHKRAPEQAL
# [11] = molecular target: T2, Muscarinic acetylcholine receptor M2 (Homo sapiens) (UniProt P08172); assay: Agonist activity at M2 receptor (unknown origin) at 3 uM by calcium mobilization assay; assay type: functional
# T2 sequence (whole entry): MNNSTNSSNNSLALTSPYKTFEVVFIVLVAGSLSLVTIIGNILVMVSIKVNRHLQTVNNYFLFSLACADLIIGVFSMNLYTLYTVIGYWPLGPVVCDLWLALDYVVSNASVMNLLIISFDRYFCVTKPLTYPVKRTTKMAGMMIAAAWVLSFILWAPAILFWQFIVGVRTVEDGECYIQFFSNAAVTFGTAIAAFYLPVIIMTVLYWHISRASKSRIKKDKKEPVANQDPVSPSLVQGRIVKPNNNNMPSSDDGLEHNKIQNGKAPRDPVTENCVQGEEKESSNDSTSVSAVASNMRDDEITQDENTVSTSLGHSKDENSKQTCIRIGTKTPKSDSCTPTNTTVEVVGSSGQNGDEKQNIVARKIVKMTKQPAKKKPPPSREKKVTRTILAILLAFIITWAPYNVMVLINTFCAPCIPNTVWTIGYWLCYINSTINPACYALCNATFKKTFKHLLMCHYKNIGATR
# [12] = molecular target: T3, Muscarinic acetylcholine receptor M5 (Homo sapiens) (UniProt P08912); assay: Agonist activity at M5 receptor (unknown origin) at 3 uM by calcium mobilization assay; assay type: functional
# T3 sequence (whole entry): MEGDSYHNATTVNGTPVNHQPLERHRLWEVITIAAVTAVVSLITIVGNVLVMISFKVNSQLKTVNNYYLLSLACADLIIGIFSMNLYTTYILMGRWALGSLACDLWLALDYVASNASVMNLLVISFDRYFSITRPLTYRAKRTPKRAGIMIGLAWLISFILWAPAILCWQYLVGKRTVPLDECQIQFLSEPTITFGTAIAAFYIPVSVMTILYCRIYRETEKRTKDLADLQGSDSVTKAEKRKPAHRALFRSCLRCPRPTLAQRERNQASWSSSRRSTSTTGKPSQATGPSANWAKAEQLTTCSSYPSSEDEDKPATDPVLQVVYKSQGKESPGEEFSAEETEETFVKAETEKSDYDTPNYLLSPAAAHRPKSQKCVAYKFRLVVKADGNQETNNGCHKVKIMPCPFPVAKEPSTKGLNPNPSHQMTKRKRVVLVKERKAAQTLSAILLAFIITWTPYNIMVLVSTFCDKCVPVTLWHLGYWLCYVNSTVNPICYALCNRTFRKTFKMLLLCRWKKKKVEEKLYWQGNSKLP
# [13] = molecular target: T4, Muscarinic acetylcholine receptor M1 (Homo sapiens) (UniProt P11229); assay: Agonist activity at M1 receptor (unknown origin) at 3 uM by calcium mobilization assay; assay type: functional
# T4 sequence (whole entry): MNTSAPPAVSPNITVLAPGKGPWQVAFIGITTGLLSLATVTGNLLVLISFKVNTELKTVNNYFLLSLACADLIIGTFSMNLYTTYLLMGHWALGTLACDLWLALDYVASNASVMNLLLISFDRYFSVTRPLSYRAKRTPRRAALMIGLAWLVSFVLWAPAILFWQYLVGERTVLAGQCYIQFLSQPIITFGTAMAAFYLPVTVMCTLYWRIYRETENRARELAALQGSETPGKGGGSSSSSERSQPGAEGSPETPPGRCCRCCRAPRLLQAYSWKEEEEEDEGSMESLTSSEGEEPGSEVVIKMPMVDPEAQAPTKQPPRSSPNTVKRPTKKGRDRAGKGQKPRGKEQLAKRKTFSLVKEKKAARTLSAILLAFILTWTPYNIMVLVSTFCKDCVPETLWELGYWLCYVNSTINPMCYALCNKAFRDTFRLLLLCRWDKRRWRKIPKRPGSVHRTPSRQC
# Cynomolgus monkey [14] = assay: Induction of salivation in sc dosed cynomolgus monkey; assay type: organism-based, Macaca fascicularis; conditions: in vivo
# Cynomolgus monkey [15] = assay: Cardiotoxicity in telemetered cynomolgus monkey assessed as increase in mean blood pressure at 1 to 3 mg/kg, sc measured after 1 to 4 hrs by telemetry method; assay type: toxicity, organism-based, Macaca fascicularis; parameters: route subcutaneous; conditions: in vivo
# [16] = molecular target: T5, Muscarinic acetylcholine receptor M4 (Homo sapiens, UniProt P08173); assay: (§1) Partial agonist activity at human M4 receptor co-expressed with Galpha16 in CHO cells assessed as calcium mobilization after 60 mins by FLIPR assay; assay type: functional, cell-based
# T5 sequence (P08173 whole entry): T1 sequence (whole entry)
# [17] = molecular target: T1, Muscarinic acetylcholine receptor M4 (Homo sapiens); assay: as §1; assay type: functional, cell-based
# [18] = molecular target: Muscarinic acetylcholine receptor M3 (Homo sapiens) (UniProt P20309); assay: Partial agonist activity at human M3 receptor in CHO cells assessed as calcium mobilization at 3 uM after 60 mins by FLIPR assay; assay type: functional, cell-based
# [19] = molecular target: T4, Muscarinic acetylcholine receptor M1 (Homo sapiens); assay: Partial agonist activity at human M1 receptor in CHO cells assessed as calcium mobilization at 3 uM after 60 mins by FLIPR assay; assay type: functional, cell-based
# [20] = molecular target: T2, Muscarinic acetylcholine receptor M2 (Homo sapiens); assay: Partial agonist activity at human M2 receptor co-expressed with Galpha16 in CHO cells assessed as calcium mobilization at 3 uM after 60 mins by FLIPR assay; assay type: functional, cell-based
# [21] = molecular target: T3, Muscarinic acetylcholine receptor M5 (Homo sapiens); assay: Partial agonist activity at human M5 receptor in CHO cells assessed as calcium mobilization at 3 uM after 60 mins by FLIPR assay; assay type: functional, cell-based
# [22] = molecular target: Voltage-gated inwardly rectifying potassium channel KCNH2 (Homo sapiens, UniProt Q12809); assay: Inhibition of human ERG assessed as decrease in tail current amplitude measured after 5 mins by whole cell patch clamp technique
# Chain of Voltage-gated inwardly rectifying potassium channel KCNH2 (Q12809 whole entry): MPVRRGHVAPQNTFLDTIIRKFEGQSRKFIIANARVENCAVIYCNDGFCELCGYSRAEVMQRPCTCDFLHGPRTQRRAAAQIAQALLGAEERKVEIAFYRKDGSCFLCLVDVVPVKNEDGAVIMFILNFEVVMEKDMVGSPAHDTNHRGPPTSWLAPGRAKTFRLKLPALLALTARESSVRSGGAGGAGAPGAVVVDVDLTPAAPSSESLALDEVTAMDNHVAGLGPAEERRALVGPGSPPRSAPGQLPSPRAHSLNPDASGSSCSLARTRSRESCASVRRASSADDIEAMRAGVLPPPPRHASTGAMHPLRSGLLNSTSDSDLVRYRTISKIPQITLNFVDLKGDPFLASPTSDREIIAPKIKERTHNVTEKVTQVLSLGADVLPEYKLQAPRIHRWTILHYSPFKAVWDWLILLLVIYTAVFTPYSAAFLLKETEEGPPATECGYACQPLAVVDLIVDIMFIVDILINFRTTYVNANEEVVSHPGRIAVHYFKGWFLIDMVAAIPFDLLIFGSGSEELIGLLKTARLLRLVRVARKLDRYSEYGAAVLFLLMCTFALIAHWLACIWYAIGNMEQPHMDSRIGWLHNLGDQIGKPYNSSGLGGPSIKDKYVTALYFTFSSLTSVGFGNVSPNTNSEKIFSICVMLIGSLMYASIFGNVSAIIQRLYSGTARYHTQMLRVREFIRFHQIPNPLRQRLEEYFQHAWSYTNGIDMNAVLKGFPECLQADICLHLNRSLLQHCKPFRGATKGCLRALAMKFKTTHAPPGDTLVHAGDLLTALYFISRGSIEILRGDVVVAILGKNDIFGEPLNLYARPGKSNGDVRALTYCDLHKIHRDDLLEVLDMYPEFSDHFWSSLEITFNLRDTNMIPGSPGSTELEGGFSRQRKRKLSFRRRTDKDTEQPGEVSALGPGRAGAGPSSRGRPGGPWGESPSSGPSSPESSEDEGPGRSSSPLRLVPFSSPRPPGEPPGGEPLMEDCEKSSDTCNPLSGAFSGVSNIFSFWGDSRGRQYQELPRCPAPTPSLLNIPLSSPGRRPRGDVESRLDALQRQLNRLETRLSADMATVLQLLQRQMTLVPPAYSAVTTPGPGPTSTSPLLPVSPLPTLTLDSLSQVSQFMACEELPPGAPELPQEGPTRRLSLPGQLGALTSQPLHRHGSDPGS
# [23] = molecular target: T1, Muscarinic acetylcholine receptor M4 (Homo sapiens); assay: Partial agonist activity at human M4 receptor co-expressed with Galpha16 in CHO cells assessed as calcium mobilization at 3 uM after 60 mins by FLIPR assay; assay type: functional, cell-based
# Rattus norvegicus [24] = species on record: Rattus norvegicus; conditions: Sprague-Dawley, 0.1 to 1 mg/kg
# Mus musculus [25] = assay: Induction of seizures in ddY mouse at 300 mg/kg, sc measured for 45 mins after drug injection; assay type: organism-based; parameters: dose 300 mg/kg, route subcutaneous; conditions: in vivo, 0.75 h
# [26] = molecular target: T1, Muscarinic acetylcholine receptor M4 (Homo sapiens); assay: Partial agonist activity at human M4 receptor co-expressed with Galpha16 in CHO cells assessed as calcium mobilization at 30 nM after 60 mins by FLIPR assay; assay type: functional, cell-based
# [27] = molecular target: T1, Muscarinic acetylcholine receptor M4 (Homo sapiens); assay: Agonist activity at M4 receptor (unknown origin) at 10 uM by calcium mobilization assay; assay type: functional
smiles,measurement,setting,value
CCCCCCOc1nsnc1C1=CCCN(C)C1.O=C(O)C(O)C(O)C(=O)O [XANOMELINE TARTRATE],Activity,Cynomolgus monkey [1],Toxic
same,Activity,Rattus norvegicus [2],Toxic
same,Activity,Cynomolgus monkey [3],Toxic
same,Activity,Cynomolgus monkey [4],Toxic
same,Activity,Cynomolgus monkey [5],Toxic
same,Activity,[6],83%
same,Activity,Cynomolgus monkey [7],Toxic
same,Activity,Mus musculus [8],Toxic
same,Activity,Cynomolgus monkey [9],Toxic
same,Activity,[10],85%
same,Activity,[11],34%
same,Activity,[12],33%
same,Activity,[13],145%
same,Activity,Cynomolgus monkey [14],Toxic
same,Activity,Cynomolgus monkey [15],Toxic
CCOC(=O)N1CCC(C)(CN2CC[C@H](N3C(=O)Cc4ccccc43)C2)CC1,EC50,[16],15 nM
same,Intrinsic activity,[17],65%
same,Activity,[18],2%
same,Activity,[19],49%
same,Activity,[20],3%
same,Activity,[21],4%
same,IC50,[22],3500 nM
CCOC(=O)N1CCC(CN2CCC(N3C(=O)Cc4ccccc43)CC2)CC1,Activity,[6],33%
same,Activity,[10],2%
same,Activity,[11],6%
same,Activity,[12],6%
same,Activity,[13],88%
CCOC(=O)N1CCC(O)(CN2CC[C@H](N3C(=O)Cc4ccccc43)C2)CC1,EC50,[16],320 nM
same,Intrinsic activity,[17],45%
same,Activity,[18],31%
same,Activity,[19],57%
same,Activity,[20],12%
same,Activity,[21],3%
same,IC50,[22],3900 nM
CCOC(=O)N1CCC(CN2CC[C@H](N3C(=O)Cc4ccccc43)C2)(OC)CC1,Intrinsic activity,[23],13%
CCOC(=O)N1CCC(CN2CCCC(N3C(=O)Cc4ccccc43)CC2)CC1 (stereo unspecified),Activity,[6],4%
same,Activity,[10],2%
same,Activity,[11],4%
same,Activity,[12],3%
same,Activity,[13],7%
CO/N=C(\C#N)[C@H]1CN2CCC1CC2 [SABCOMELINE],EC50,[16],5.7 nM
same,Intrinsic activity,[17],28%
same,inhibition,Rattus norvegicus [24],Active
CC[C@@H]1C(=O)OC[C@@H]1Cc1cncn1C [PILOCARPINE],Activity,Mus musculus [25],Toxic
CCOC(=O)N1CCC(CN2CC[C@@H](N3C(=O)Cc4ccccc43)C2)CC1,Activity,[6],86%
same,Activity,[10],8%
same,Activity,[11],27%
same,Activity,[12],4%
same,Activity,[13],88%
CCOC(=O)N1CCC(CN2CC[C@H](N3C(=O)Cc4ccccc43)C2)CC1,Intrinsic activity,[26],79%
same,Activity,[6],124%
same,Activity,[18],7%
same,Activity,[10],7%
same,Activity,[11],30%
same,Activity,[12],5%
same,Activity,[13],83%
same,Activity,[19],83%
same,Activity,[20],30%
same,Activity,[21],5%
CC(C)=CCN1CCC(N2C(=O)C(C)(C)c3ccccc32)CC1,Activity,[27],33%
same,Activity,[6],14%
CCOC(=O)N1CCC(CN2CC(N3C(=O)Cc4ccccc43)C2)CC1,Activity,[6],46%
same,Activity,[10],3%
same,Activity,[11],2%
same,Activity,[12],3%
same,Activity,[13],65%

# Source: ChEMBL document CHEMBL2331215, “Discovery of novel N-substituted oxindoles as selective m1 and m4 muscarinic acetylcholine receptors partial agonists” (ACS Med Chem Lett, 2013)
